# Experimental data: patent publication US8236833B2, “Biphenyl derivatives as modulators of voltage gated ion channels” (Vertex Pharmaceuticals Incorporated, priority 2005, dated 2012)
# Like-named read-outs stand apart in the source and are kept apart here.
# Tests used:
# [1] = test system: voltage-gated sodium ion channels; experiment: Assays for detecting and measuring NaV inhibition properties of compounds (Table 3 activity data; the specific assay and subtype are not stated); type: cell-based
# [2] = test system: neuropathic pain; details: in vivo; cited from earlier work
# [3] = target: NaV1.3 (Homo sapiens, UniProt Q9NY46); details: read-out: TTX IC50; cited from earlier work
# NaV1.3, sequence (Q9NY46 whole entry, looked up): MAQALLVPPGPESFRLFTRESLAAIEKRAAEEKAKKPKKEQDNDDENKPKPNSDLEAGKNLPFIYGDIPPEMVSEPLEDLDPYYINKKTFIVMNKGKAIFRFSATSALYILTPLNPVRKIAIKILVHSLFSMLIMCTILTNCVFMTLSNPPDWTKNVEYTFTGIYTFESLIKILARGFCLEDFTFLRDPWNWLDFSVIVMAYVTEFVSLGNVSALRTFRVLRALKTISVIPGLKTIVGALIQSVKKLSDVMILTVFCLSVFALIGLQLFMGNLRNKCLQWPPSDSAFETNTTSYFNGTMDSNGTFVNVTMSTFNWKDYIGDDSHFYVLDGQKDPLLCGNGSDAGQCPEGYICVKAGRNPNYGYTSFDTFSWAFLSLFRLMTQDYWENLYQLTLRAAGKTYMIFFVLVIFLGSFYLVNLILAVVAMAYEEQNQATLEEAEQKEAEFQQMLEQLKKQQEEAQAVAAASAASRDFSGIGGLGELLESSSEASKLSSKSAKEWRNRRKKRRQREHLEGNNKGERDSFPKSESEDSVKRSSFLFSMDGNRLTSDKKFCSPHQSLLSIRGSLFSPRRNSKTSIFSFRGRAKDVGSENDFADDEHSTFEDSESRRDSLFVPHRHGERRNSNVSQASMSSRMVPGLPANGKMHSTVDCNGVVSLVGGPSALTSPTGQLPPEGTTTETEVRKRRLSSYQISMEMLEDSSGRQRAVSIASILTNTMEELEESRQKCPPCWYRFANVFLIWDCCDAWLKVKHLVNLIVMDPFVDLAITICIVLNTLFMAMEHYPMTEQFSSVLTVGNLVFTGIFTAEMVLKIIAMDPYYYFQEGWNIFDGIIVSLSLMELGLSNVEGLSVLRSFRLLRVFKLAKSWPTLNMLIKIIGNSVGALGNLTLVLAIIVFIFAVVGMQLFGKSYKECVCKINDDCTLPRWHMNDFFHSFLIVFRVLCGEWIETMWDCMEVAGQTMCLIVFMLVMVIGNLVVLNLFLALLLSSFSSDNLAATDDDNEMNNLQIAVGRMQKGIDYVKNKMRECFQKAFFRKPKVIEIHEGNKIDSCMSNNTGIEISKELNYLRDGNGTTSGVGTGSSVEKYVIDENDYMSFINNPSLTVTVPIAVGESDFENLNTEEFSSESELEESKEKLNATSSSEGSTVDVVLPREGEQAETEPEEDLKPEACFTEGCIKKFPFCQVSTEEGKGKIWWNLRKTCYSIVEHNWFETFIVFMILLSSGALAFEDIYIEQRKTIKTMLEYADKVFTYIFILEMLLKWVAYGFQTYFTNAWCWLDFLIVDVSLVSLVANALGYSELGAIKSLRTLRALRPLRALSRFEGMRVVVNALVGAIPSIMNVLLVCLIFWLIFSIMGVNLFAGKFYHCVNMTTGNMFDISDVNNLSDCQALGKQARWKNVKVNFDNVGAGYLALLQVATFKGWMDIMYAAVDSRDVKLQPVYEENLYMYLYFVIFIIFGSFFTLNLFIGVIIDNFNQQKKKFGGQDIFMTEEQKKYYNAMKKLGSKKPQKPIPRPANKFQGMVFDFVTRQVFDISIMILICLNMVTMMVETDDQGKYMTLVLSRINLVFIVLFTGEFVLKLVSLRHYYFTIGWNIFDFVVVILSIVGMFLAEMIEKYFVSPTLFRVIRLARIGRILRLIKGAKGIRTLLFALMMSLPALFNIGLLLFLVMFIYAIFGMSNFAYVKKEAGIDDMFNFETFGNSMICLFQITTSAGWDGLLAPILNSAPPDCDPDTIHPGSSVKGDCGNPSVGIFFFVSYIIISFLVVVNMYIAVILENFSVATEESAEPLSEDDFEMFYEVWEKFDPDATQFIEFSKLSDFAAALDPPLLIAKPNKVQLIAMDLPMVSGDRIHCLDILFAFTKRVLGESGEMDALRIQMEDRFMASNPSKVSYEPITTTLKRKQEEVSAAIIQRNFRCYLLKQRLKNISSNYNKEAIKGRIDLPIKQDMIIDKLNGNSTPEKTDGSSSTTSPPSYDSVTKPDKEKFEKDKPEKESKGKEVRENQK
# [4] = target: NaV1.6 (Homo sapiens, UniProt Q9UQD0); details: read-out: TTX IC50; cited from earlier work
# [5] = target: NaV1.8 (Homo sapiens, UniProt Q9Y5Y9); details: read-out: TTX IC50; cited from earlier work
# [6] = target: NaV1.9 (Homo sapiens, UniProt Q9UI33); details: read-out: TTX IC50; cited from earlier work
# NaV1.9, sequence (Q9UI33 whole entry, looked up): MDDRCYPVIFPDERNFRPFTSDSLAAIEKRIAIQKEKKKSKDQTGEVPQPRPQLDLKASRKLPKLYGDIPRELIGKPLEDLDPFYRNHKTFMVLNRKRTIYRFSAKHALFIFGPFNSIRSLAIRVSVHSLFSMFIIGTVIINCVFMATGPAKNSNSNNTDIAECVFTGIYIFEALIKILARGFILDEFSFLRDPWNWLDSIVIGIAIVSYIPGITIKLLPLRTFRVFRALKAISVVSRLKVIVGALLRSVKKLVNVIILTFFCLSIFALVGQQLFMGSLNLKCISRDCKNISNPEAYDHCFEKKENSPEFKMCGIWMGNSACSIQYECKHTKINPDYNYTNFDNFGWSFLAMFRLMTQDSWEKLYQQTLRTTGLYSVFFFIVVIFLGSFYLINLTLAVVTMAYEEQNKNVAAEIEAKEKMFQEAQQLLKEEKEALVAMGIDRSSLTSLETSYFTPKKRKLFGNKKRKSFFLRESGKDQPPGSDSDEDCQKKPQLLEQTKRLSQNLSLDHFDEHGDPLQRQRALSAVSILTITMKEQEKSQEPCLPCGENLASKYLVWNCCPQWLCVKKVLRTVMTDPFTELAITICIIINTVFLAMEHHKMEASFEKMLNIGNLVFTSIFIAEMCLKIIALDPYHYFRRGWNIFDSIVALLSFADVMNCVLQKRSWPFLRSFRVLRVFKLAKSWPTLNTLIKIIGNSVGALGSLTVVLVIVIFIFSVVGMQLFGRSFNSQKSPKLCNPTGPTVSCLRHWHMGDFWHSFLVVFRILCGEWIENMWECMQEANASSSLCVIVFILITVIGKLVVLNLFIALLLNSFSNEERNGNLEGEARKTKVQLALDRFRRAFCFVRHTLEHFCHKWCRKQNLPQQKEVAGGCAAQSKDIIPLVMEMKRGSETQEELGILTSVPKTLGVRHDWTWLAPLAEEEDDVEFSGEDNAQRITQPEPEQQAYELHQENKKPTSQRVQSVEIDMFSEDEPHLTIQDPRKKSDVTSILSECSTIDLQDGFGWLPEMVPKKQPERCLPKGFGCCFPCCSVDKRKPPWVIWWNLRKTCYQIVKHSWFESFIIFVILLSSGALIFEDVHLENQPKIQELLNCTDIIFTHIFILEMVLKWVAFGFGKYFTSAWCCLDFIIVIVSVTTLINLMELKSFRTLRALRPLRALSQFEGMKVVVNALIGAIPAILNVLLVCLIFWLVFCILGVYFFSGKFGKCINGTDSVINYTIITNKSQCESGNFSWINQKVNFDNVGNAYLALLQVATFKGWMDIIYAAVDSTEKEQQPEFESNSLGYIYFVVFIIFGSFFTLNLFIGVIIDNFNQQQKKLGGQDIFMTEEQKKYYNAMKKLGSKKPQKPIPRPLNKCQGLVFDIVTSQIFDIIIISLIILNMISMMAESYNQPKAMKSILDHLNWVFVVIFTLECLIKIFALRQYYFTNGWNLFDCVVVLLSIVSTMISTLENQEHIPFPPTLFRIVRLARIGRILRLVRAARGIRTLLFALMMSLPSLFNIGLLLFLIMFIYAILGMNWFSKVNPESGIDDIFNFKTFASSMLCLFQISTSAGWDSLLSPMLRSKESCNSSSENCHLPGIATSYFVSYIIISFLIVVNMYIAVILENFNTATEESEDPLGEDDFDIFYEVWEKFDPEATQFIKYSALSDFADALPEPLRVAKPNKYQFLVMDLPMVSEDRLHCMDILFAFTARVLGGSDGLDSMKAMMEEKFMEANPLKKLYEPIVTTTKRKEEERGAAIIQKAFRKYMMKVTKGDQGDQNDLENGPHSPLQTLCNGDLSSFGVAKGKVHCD
# [7] = target: NaV1.1 (Homo sapiens, UniProt P35498); details: read-out: TTX IC50; cited from earlier work
# [8] = activity data for selected compounds, NaV subtype not stated, read-out: IC50
smiles,measurement,setting,value
COc1cccc(CC(=O)Nc2ccc(-c3ccc(S(=O)(=O)Nc4nccs4)cc3)cc2)c1 [Compound 2],IC50,[1],> 5 µM
O=C(COc1ccc(Cl)cc1)Nc1ccc(-c2ccc(S(=O)(=O)Nc3nccs3)cc2)cc1 [Compound 1],IC50,[1]; [8],1 to 5 µM
O=C(Nc1ccc(-c2ccc(S(=O)(=O)Nc3nccs3)cc2)cc1)c1ccccc1F [Compound 3],IC50,[1],1 to 5 µM
NCC1(CC(=O)O)CCCCC1 [Gabapentin],share of patients in which it works,[2],60%
"NC1=N[C@H](O)[C@H]2[C@H]3O[C@]4(O)O[C@@H]([C@@H](O)[C@@]2(N1)[C@@H]4O)[C@]3(O)CO [TTX, tetrodotoxin]",IC50,[3],0.015 µM
same,IC50,[4],0.006 µM
same,IC50,[5],> 50 µM
same,IC50,[6],1 µM
same,IC50,[7],0.01 µM
"C[C@@H](C(=O)Nc1ccc(-c2ccc(S(=O)(=O)Nc3nccs3)cc2)cc1)n1ccc2c(F)cccc21 [Compound 6, (S)-2-(4-Fluoro-indol-1-yl)-N-[4′-(thiazol-2-ylsulfamoyl)-biphenyl-4-yl]-propionamide]",IC50,[1]; [8],< 1 µM
"O=C(COc1cccc(Cl)c1)Nc1ccc(-c2ccc(S(=O)(=O)Nc3nccs3)cc2)cc1 [Compound 5, 2-(3-Chloro-phenoxy)-N-[4′-(thiazol-2-ylsulfamoyl)-biphenyl-4-yl]-acetamide]",IC50,[1]; [8],1 to 5 µM
"O=C(COc1ccnc2c(C(F)(F)F)cccc12)Nc1ccc(-c2ccc(S(=O)(=O)Nc3nccs3)cc2)cc1 [Compound 4, N-[4′-(Thiazol-2-ylsulfamoyl)-biphenyl-4-yl]-2-(8-trifluoromethyl-quinolin-4-yloxy)-acetamide]",IC50,[1]; [8],> 5 µM
